Eleven compounds from PubChem BioAssay (NCI) can be followed below.

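Assay format: 96-well plates, 48-hour exposure. GI50 marks 50% less growth. The concentration for full growth arrest is given as TGI.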 A value given as a limit tells only on which side of the number the result lay.

Assay in all cases: NCI tumour cell line growth inhibition, 48 h
The test system of experiment [1] is UO-31 renal.
Experiment [2] relates to KM12 colon.
For experiment [3], the system named is HT29 colon.
Experiment [4] concerns OVCAR-3 ovarian.
Experiment [5] concerns UACC-257 melanoma.
Experiment [6] relates to HCC-2998 colon.
The subject of experiment [7] is CAKI-1 renal.
Experiment [8] concerns OVCAR-4 ovarian.
Experiment [9] deals with SF-268 CNS.
Experiment [10] relates to MDA-MB-435.

For the compound `COc1cc(/C=C/c2cc(C(F)(F)F)[nH]c(=O)n2)ccc1OCc1ccccc1F`, the GI50 is 13 µM in experiment [1]; 11.8 µM in [2]; 21.5 µM in experiment [3]; 4.72 µM in experiment [4]; 7.51 µM in experiment [5]; 15.5 µM in [6]. In addition, the GI50 is 11.3 µM in experiment [7], 7.6 µM in experiment [8], 17.9 µM in experiment [9] and 3.77 µM in [10]. For the same compound, the TGI in [1] was 29.4 µM; in [2] it was 26.2 µM; in experiment [3], 43.6 µM; in [4] it was 17.4 µM; in [5], 31.3 µM; in experiment [6], 30.1 µM. Further, the TGI is 42.3 µM in experiment [7], 67.9 µM in experiment [8], more than 100 µM in experiment [9] and 17 µM in experiment [10].

For the compound `CCOc1ccc(/C=C/C(=O)c2ccccc2)cc1`, the GI50 in experiment [1] was 14.1 µM; in experiment [2], 10.7 µM; in experiment [3], 13.8 µM; in [4] it was 15.5 µM; in [5], 16.1 µM; in experiment [6] it was 15.6 µM. For the same compound, the GI50 in experiment [7] was 14.1 µM; in experiment [8], 21.5 µM; in experiment [9], 18.7 µM; in [10], 12 µM. The TGI in [1] was determined as 28 µM; in experiment [2], 23.6 µM; in experiment [3] it was 29.6 µM; in experiment [4], 29.3 µM; in experiment [5], 33.1 µM; in experiment [6], 29.7 µM. Moreover, the TGI in [7] was 30.7 µM; in experiment [8] it was 60.5 µM; in [9], 36.9 µM; in experiment [10], 30.1 µM.

On to `O=C(Nc1ccccc1C(F)(F)F)c1cccc(NC2=C(Cl)C(=O)N(Cc3ccccc3)C2=O)c1`, for which the GI50 in experiment [1] was 19.8 µM; in experiment [2] it was 19.2 µM; in experiment [3] it was 65.6 µM; in experiment [4], 6.62 µM; in experiment [5] it was 11.2 µM; in experiment [6] it was 21.5 µM. In addition, the GI50 in experiment [7] was 21.1 µM; in experiment [8] it was 45.1 µM; in [9], 9.32 µM; in experiment [10] it was 4.2 µM. Moreover, the TGI in experiment [1] was 97.8 µM; in [2] it was more than 85.2 µM; in experiment [3], more than 100 µM; in experiment [4] it was more than 43.8 µM; in [5], 70.1 µM; in experiment [6] it was 50.8 µM. The TGI in [7] was more than 67.2 µM; in [8] it was more than 100 µM; in experiment [9] it was more than 25.3 µM; in experiment [10], more than 33 µM.

As to `COc1cc(OC)c(/C=C/c2ccc3ccccc3[n+]2C)c(OC)c1`, the GI50 in experiment [1] is 6.14 µM; in experiment [2], 0.322 µM; in [3], 0.28 µM; in [4] it was 0.56 µM; in experiment [5] it was 0.49 µM; in experiment [6] it was 0.811 µM. Further, the GI50 in [7] is 8.55 µM; in experiment [8], 0.659 µM; in experiment [9] it was 0.501 µM; in [10], 0.342 µM. Further, the TGI in experiment [1] came out at 54 µM; in experiment [2], 1.99 µM; in [3], 1.57 µM; in experiment [4], 3.9 µM; in experiment [5], 3.19 µM; in [6], 5.6 µM. Besides, the TGI was more than 49.2 µM in experiment [7], 15.8 µM in experiment [8], 7.61 µM in [9] and 1.53 µM in [10].

`C=CC(=O)N1CCCC(n2nc(-c3ccc(Oc4ccccc4)cc3)c3c(N)ncnc32)C1` (stereo unspecified): the GI50 in [1] was 1.4 µM; in experiment [2] it was 8.73 µM; in experiment [3], 5.93 µM; in experiment [4], 6.23 µM; in [5], 6.82 µM; in experiment [6] it was 16 µM. Besides, the GI50 in experiment [7] was 0.107 µM; in experiment [8] it was 7.12 µM; in experiment [9] it was 3.12 µM; in experiment [10] it was 7.85 µM. The TGI in [1] was 13.5 µM; in [2] it was 22 µM; in experiment [3], 21 µM; in [4], 20.4 µM; in [5], 20.5 µM; in experiment [6] it was 30.8 µM. In addition, the TGI is 10.6 µM in experiment [7], 21.2 µM in experiment [8], 17.2 µM in [9] and 22.5 µM in [10].

Turning to `CC1=CSC2=NC(c3ccc(Cl)c(Cl)c3)=CC(c3ccc(Cl)cc3)N12` (stereo unspecified), the GI50 in [1], in experiment [2], in [3], in experiment [4], in [5] and in experiment [6] was more than 100 µM each time. The GI50 in [7], in experiment [8], in experiment [9] and in experiment [10] was more than 100 µM throughout. The TGI in experiment [1], in [2], in [3], in experiment [4], in experiment [5] and in experiment [6] was more than 100 µM in each case. Besides, the TGI in experiment [7], in [8], in experiment [9] and in experiment [10] was more than 100 µM throughout.

For `COC(=O)CCC/C=C\C[C@H]1C=CC(=O)/C1=C/C[C@@H](O)CCc1cccc(C(F)(F)F)c1`, the GI50 in [1] was 1.73 µM; in experiment [2] it was 1.9 µM; in experiment [3], 2.64 µM; in experiment [4] it was 1.97 µM; in experiment [5], 2.48 µM; in [6], 1.83 µM. Besides, the GI50 in experiment [7] is 3.89 µM; in [8] it was 3.47 µM; in experiment [9], 3.09 µM; in [10], 2.01 µM. Moreover, the TGI in experiment [1] came to 3.29 µM; in experiment [2], 4.23 µM; in [3], 6.06 µM; in experiment [4], 4.08 µM; in experiment [5], 7.49 µM; in experiment [6], 3.35 µM. The TGI in experiment [7] amounted to 14.7 µM; in experiment [8] it was 14.1 µM; in experiment [9], 11.4 µM; in [10] it was 6.15 µM.

As for `Nc1nc(-c2cccc([N+](=O)[O-])c2)c(Br)c(=O)[nH]1`, the TGI was more than 100 µM in experiment [1]; more than 100 µM in experiment [2]; more than 100 µM in experiment [3]; more than 100 µM in experiment [4]; more than 71.4 µM in experiment [5]; more than 100 µM in [6]. Further, the TGI in [7], in experiment [8], in experiment [9] and in experiment [10] was more than 100 µM each time.

On to `CCOC(=O)[C@@H](C)C[C@H](Cc1ccccc1)NC(=O)c1csc([C@@H](C[C@H](C(C)C)N(C)C(=O)[C@@H](NC(=O)[C@H]2C[C@H](O[Si](C)(C)C(C)(C)C)CCN2C)C(C)C)OC(C)=O)n1`, for which the GI50 was 0.44 µM in [1]; 0.241 µM in experiment [2]; 0.267 µM in experiment [3]; 0.192 µM in experiment [4]; 0.789 µM in experiment [5]; 0.182 µM in experiment [6]. Also, the GI50 in [7] is 0.351 µM; in experiment [8], 0.674 µM; in [9], 0.441 µM; in experiment [10], 0.0389 µM. For the same compound, the TGI in [1] is more than 8.33 µM; in experiment [2] it was more than 8.33 µM; in [3], 1.96 µM; in [4], more than 2.07 µM; in experiment [5], more than 8.33 µM; in [6] it was 0.69 µM. Also, the TGI in experiment [7] is more than 8.33 µM; in experiment [8], more than 8.33 µM; in experiment [9], more than 8.33 µM; in experiment [10] it was 0.165 µM.

Consider `CC(C)c1ccc(Cc2cnc(NC(=O)c3cc(Br)cs3)s2)cc1`, for which the GI50 in experiment [1] is 3.8 µM; in [2] it was 2.12 µM; in experiment [3], 4.5 µM; in experiment [4], 2.75 µM; in experiment [5], 7.6 µM; in [6], 3.65 µM. Moreover, the GI50 is 1.16 µM in [7], 4.65 µM in [8], 5.89 µM in [9] and 0.355 µM in [10]. In addition, the TGI in [1], in experiment [2], in [3], in experiment [4], in [5] and in [6] was more than 100 µM in each case. Moreover, the TGI in experiment [7] was more than 100 µM; in experiment [8], more than 100 µM; in experiment [9], more than 100 µM; in [10], 2.16 µM.

For the compound `O=c1ccn(C2OC(CO)C(O)C2O)c(=O)[nH]1` (stereo unspecified), the GI50 in experiment [2], in experiment [3], in [4], in experiment [6], in experiment [8] and in experiment [9] was more than 1000 µM in each case. Besides, the GI50 in experiment [10] was more than 1000 µM. Further, the TGI in experiment [2], in experiment [3], in [4], in [5], in experiment [6] and in [7] was more than 1000 µM each time. Further, the TGI in experiment [8], in experiment [9] and in experiment [10] was more than 1000 µM throughout.
